Test results reported in ChEMBL document CHEMBL1201862, “PubChem BioAssay data set” (2004).
The source made the active and inactive calls.

Key:
BJ [1] = experiment: cytotoxicity toward BJ-TERT fibroblasts, dose response, cell-based, RAS-independent, luminescence (AID 1933); format: functional; settings: Homo sapiens
[2] = inhibitors of intracellular T. cruzi replication, confirmation, NIH3T3 host cells, beta-gal luminescence (AID 2044); format: functional, cell-based;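 further: intracellular parasites grown in NIH/3T3 mouse fibroblasts as host cells; luminescent beta-galactosidase reporter signal from transgenic T. cruzi replicating inside host cells; inhibitors lower the luminescence signal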
[3] = molecular target: T1, Short transient receptor potential channel 4 (Mus musculus, UniProt Q9QUQ5); experiment: mouse TRPC4 channel activators, dose response, cell-based, HEK293 TRPC4/mu-opioid, Fluo-4 calcium (AID 434937); format: functional
T1 sequence (Q9QUQ5 whole entry): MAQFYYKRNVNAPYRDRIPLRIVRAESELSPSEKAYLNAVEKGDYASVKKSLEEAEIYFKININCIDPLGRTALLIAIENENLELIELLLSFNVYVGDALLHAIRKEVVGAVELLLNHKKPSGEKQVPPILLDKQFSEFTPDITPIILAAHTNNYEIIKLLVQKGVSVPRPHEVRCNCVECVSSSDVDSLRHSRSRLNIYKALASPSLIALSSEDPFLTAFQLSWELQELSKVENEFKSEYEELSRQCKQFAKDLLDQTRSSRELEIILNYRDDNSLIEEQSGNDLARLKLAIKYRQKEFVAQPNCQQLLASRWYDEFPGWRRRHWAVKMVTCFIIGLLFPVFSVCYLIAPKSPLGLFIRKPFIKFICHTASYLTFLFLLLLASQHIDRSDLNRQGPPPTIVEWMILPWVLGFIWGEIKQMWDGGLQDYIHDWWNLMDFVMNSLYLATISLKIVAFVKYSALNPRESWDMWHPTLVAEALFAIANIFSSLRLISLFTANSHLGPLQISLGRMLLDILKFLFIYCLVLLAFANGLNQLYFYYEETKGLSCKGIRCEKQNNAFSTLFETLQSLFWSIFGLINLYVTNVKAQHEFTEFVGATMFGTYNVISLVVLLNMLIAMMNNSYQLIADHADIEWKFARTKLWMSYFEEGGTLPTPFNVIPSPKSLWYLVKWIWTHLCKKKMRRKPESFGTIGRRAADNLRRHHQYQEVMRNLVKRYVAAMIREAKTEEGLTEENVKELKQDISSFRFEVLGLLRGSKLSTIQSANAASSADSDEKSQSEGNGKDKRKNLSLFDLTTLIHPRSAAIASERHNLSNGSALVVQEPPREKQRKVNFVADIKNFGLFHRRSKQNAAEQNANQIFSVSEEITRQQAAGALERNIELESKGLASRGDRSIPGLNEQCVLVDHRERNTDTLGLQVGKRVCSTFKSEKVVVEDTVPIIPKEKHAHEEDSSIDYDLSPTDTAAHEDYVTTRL

[4] = cytotoxicity toward NIH3T3 fibroblasts, dose response, counter-screen, cell-based, ATP luminescence, mouse fibroblasts (AID 2010); format: functional;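 further: cells exposed to compound for about 90 hours before reading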
[5] = cytotoxicity toward DRD oncogenic fibroblasts, dose response, cell-based, non-viral oncogenic, luminescence (AID 1934); format: functional; settings: Homo sapiens
BJ [6] = experiment: cytotoxicity toward BJ-TERT-LT-ST fibroblasts, dose response, cell-based, RAS-independent, luminescence (AID 1935); format: functional; settings: Homo sapiens;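 further: BJ fibroblasts immortalized with TERT plus LT and ST oncogenes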
BJ [7] = experiment: cells; format: functional, cell-based; settings: Homo sapiens
[8] = molecular target: T2, Carboxy-terminal domain RNA polymerase II polypeptide A small phosphatase 1 (Homo sapiens, UniProt Q9GZU7); experiment: inhibitors of CTDSP1, concentration-response testing, biochemical assay, absorbance-based, actives from ultra-high-throughput screening (AID 540297); format: functional
T2 sequence (Q9GZU7 whole entry): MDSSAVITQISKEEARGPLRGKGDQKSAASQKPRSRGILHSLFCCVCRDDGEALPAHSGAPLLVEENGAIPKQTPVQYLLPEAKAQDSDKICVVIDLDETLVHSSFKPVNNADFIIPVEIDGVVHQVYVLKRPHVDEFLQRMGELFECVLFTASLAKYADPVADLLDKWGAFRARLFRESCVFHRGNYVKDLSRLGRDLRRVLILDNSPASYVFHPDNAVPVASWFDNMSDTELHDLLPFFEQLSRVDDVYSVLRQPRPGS

Estrogen receptor beta [9] = molecular target: T3, Estrogen receptor beta (Homo sapiens, UniProt Q92731); experiment: ERβ–SRC-3 coactivator interaction inhibitors, confirmation, orthogonal assay, biochemical, ELISA, streptavidin-HRP readout (AID 1060)
Estrogen receptor beta [10] = molecular target: T3, Estrogen receptor beta
Estrogen receptor = Estrogen receptor (Homo sapiens, UniProt P03372);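 further: potency for inhibiting coactivator peptide recruitment to the receptor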
Bcl-2-like protein 10 = molecular target: T4, Bcl-2-like protein 10 (Homo sapiens, UniProt Q9HD36); experiment: displacers of TR3 peptide from Bcl-B, primary screen, selectivity assay for Bfl-1 inhibitor project, biochemical, fluorescence polarization, FITC-TR3 peptide (AID 748);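 further: fluorescence polarization from a fluorescein-labelled TR3 peptide binding purified Bcl-B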
T4 sequence (Q9HD36 whole entry): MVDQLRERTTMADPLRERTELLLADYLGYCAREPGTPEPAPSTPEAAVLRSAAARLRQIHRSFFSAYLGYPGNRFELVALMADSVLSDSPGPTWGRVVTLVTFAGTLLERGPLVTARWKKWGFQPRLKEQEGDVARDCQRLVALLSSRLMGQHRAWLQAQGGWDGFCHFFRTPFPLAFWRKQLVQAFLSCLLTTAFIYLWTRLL

Procathepsin L = Procathepsin L (Homo sapiens, UniProt P07711)
Aspartyl aminopeptidase = Aspartyl aminopeptidase (Plasmodium falciparum 3D7, UniProt Q8I2J3)
[11] = molecular target: Dual specificity protein phosphatase 3 (Homo sapiens, UniProt P51452); experiment: SAR VHR1 Fluorescent Assay for In Vitro dose response studies Set 2. [Related pubchem assays (depositor defined):AID1654, AID1661, AID1878]; format: functional
[12] = molecular target: T5, Tyrosine-protein phosphatase non-receptor type 7 (Homo sapiens, UniProt P35236); experiment: SAR analysis of chemical inhibitors of HePTP using a Fluorescent assay - Set 2. [Related pubchem assays (depositor defined):AID1059, AID1077, AID1661, AID2085, AID521]; format: functional
T5 sequence (P35236 whole entry): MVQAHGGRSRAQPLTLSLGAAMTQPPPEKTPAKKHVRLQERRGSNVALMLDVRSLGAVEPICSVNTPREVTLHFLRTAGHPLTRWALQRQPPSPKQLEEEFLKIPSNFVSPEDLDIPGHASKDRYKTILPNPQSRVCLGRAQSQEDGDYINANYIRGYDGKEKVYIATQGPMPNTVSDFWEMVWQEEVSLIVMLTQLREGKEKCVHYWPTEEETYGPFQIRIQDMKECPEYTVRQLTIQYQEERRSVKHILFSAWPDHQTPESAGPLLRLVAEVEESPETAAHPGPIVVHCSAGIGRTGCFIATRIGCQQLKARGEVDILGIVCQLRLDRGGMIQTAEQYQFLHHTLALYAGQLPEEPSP

[13] = HepG2 cell cytotoxicity, dose response, cytotoxicity control, ATP luminescence, cherry-pick, activator set 2 (AID 1053143); format: functional, cell-based
[14] = molecular target: T6, E3 ubiquitin-protein ligase XIAP (Homo sapiens, UniProt P98170); experiment: Counter Screen using XIAP-Bir3 for Chemical Antagonists of Bir1/2 domains of IAP-family anti-apoptotic proteins. [Related pubchem assays (depositor defined):AID1018, AID1449, AID1514, AID1638, AID1749, AID1750, AID488957, AID488963]
[15] = molecular target: T6, E3 ubiquitin-protein ligase XIAP; experiment: XIAP antagonists, biochemical, IAP family, fluorescence polarization (AID 1018); format: functional
[16] = molecular target: Lysosomal acid glucosylceramidase (Homo sapiens, UniProt P04062); experiment: Dose response cell-based high throughput screening assay to identify enhancers of beta-glucosidase activity. [Related pubchem assays: 784 ]; format: functional
[17] = M. tuberculosis H37Rv growth inhibitors, H37Rv strain (AID 1626); format: functional
[18] = Luminescence-based dose response cell-based high throughput screening assay for cytotoxic compounds using the IEC-6 intestinal epithelial cell line. [Related pubchem assays: 1858 (Summary AID.), 1825 (Counterscreen.), 1907 (Confirmation screen.)]; format: functional
[19] = cytotoxicity in HEK-293T cells, dose response, cytotoxicity control for BCR NF-kB inhibitor project, luminescence, B-cell screen hits (AID 489021); format: functional, cell-based;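 further: HEK-293T cells carrying an NF-kB luciferase reporter; cells exposed to compound for about 14 hours before viability readout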
Hexokinase HKDC1 = molecular target: T7, Hexokinase HKDC1 (Homo sapiens, UniProt Q2TB90); experiment: HKDC1 hexokinase inhibitors, dose response, biochemical, W721R variant (AID 504729); format: functional
T7 sequence (Q2TB90 whole entry): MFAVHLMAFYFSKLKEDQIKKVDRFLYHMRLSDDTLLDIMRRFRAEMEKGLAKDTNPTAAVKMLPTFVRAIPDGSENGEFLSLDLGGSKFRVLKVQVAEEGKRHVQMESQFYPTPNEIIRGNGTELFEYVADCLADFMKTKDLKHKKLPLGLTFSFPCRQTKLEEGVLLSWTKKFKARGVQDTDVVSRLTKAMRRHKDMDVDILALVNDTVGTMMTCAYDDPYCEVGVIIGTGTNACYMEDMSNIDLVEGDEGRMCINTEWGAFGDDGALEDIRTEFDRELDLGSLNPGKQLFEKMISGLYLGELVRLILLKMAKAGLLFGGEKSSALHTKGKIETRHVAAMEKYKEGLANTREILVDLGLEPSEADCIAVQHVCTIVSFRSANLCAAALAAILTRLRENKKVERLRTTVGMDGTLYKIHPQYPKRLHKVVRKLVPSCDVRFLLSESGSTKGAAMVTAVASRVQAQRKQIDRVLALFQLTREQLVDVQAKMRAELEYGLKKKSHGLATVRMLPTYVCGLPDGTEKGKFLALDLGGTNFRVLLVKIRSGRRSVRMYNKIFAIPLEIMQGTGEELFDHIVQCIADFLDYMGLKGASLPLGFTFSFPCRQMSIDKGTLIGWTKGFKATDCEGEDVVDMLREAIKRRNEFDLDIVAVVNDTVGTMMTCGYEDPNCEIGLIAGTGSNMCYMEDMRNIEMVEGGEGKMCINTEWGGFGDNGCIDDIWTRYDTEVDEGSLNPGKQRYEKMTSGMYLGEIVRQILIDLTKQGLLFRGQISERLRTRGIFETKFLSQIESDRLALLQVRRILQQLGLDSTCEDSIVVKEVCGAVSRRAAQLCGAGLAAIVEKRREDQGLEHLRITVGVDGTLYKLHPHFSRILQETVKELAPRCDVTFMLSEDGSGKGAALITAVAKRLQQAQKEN

Genome polyprotein = Genome polyprotein (dengue virus type 2, UniProt P29990); experiment: Dengue-2 NS5 methyltransferase inhibitors, primary screen, biochemical, confirmation dose response (AID 588689); format: functional
Vero = experiment: host cell cytotoxicity of antiviral hits, dose response, cytotoxicity control for West Nile virus antiviral project, secondary assay (AID 1650); format: functional; settings: Chlorocebus sabaeus
[20] = molecular target: Scavenger receptor class B member 1 (Mus musculus, UniProt Q61009); experiment: inhibitors of SR-BI mediated HDL lipid uptake, dose response, ldlA[mSR-BI] cells, fluorescence, cherry pick (AID 493194); format: functional, cell-based;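 further: cellular uptake of fluorescent DiI-labeled HDL measured as cell fluorescence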
Sequence of Scavenger receptor class B member 1 (Q61009 whole entry): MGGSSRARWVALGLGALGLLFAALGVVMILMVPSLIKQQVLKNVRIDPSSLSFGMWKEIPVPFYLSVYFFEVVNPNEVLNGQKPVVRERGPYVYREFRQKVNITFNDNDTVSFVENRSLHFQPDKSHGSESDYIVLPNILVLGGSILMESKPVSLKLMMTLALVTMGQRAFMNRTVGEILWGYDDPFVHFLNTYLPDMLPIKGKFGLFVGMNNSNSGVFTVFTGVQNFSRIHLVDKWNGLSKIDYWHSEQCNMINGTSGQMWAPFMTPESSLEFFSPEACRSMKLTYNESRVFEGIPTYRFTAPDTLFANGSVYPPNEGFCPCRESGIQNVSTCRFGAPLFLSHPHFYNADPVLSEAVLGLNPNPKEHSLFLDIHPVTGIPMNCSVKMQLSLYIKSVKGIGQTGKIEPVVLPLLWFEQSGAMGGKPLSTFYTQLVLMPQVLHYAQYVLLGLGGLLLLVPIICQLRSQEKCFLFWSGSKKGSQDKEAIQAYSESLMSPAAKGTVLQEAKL

T6 sequence (P98170 whole entry): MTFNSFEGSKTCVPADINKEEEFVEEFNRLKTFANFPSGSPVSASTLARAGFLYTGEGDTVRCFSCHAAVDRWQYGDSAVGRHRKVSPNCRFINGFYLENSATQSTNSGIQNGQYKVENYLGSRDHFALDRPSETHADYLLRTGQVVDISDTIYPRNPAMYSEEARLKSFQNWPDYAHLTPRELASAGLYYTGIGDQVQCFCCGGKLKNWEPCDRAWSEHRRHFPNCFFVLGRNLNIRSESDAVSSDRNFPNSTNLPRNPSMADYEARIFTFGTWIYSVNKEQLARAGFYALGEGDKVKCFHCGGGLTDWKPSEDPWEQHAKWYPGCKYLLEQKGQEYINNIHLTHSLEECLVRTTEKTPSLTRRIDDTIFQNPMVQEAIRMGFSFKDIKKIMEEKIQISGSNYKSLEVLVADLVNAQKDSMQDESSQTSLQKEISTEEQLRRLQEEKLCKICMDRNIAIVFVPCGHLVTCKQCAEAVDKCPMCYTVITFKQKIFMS
T3 sequence (Q92731 whole entry): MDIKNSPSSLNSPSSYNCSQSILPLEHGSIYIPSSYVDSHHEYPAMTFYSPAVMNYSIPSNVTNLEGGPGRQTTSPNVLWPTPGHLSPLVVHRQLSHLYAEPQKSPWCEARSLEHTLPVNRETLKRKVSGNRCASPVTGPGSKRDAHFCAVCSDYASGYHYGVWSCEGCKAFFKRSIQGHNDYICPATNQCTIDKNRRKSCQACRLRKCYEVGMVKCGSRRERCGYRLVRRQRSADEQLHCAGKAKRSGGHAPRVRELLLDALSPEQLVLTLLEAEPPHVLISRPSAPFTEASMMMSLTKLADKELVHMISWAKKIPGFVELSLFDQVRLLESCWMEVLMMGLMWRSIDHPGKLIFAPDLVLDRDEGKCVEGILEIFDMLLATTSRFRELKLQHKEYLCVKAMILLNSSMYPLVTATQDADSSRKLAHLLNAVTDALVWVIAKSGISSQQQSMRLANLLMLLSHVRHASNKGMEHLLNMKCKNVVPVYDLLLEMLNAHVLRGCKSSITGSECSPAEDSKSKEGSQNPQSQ
Sequence of Lysosomal acid glucosylceramidase (P04062 whole entry): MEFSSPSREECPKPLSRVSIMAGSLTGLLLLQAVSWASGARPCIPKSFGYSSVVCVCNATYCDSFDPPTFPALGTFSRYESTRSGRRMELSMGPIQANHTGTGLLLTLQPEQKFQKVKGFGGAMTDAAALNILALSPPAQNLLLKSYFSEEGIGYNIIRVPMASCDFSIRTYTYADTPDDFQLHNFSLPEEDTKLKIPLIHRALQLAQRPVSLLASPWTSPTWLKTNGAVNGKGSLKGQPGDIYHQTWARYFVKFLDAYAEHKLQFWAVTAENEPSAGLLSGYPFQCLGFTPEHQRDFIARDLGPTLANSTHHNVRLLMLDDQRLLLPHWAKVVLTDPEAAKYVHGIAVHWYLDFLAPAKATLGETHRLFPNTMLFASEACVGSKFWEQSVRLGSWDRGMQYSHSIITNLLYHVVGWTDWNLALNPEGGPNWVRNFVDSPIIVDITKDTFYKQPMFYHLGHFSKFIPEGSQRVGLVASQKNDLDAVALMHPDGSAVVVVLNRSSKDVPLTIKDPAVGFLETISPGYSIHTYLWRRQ
Sequence of Procathepsin L (P07711 whole entry): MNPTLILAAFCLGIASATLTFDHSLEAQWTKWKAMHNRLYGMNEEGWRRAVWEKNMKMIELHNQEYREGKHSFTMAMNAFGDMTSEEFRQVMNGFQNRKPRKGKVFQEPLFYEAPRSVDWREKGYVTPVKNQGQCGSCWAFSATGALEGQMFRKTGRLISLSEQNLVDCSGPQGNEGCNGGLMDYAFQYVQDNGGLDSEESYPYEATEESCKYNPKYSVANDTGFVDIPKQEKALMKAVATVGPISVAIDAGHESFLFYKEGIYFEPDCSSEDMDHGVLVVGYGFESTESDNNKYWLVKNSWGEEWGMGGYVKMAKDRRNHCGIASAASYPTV
Sequence of Aspartyl aminopeptidase (Q8I2J3 whole entry): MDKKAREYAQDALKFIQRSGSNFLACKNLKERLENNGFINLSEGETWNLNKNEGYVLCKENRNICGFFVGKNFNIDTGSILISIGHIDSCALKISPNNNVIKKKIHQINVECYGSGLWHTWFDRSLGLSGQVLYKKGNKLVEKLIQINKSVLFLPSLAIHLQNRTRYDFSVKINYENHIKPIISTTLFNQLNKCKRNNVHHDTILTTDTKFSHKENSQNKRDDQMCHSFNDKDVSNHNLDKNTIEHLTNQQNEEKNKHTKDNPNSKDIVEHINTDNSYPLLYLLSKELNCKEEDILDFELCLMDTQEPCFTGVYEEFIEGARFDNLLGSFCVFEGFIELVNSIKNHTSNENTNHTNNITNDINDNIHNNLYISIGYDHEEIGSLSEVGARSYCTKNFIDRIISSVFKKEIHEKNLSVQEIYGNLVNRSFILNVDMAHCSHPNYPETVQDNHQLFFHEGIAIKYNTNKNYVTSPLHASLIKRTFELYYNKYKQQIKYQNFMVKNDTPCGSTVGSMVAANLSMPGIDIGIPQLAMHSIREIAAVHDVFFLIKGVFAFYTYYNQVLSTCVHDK
Sequence of Estrogen receptor (P03372 whole entry): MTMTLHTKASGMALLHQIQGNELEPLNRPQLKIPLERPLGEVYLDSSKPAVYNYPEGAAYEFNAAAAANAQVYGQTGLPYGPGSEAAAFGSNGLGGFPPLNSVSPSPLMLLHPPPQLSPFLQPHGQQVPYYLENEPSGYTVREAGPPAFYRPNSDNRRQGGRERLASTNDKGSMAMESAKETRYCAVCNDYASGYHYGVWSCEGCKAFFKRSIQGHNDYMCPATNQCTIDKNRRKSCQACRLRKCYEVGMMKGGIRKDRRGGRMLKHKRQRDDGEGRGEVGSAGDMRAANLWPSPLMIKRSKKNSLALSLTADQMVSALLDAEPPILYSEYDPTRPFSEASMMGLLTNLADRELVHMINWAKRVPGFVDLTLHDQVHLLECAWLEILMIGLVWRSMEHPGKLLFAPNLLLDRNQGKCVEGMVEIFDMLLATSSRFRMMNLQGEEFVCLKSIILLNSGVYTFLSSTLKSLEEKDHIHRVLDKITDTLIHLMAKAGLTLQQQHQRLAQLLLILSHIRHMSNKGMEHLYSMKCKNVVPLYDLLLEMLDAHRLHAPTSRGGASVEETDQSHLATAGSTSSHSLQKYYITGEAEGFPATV
Sequence of Genome polyprotein (P29990 2492-3391 limits assumed): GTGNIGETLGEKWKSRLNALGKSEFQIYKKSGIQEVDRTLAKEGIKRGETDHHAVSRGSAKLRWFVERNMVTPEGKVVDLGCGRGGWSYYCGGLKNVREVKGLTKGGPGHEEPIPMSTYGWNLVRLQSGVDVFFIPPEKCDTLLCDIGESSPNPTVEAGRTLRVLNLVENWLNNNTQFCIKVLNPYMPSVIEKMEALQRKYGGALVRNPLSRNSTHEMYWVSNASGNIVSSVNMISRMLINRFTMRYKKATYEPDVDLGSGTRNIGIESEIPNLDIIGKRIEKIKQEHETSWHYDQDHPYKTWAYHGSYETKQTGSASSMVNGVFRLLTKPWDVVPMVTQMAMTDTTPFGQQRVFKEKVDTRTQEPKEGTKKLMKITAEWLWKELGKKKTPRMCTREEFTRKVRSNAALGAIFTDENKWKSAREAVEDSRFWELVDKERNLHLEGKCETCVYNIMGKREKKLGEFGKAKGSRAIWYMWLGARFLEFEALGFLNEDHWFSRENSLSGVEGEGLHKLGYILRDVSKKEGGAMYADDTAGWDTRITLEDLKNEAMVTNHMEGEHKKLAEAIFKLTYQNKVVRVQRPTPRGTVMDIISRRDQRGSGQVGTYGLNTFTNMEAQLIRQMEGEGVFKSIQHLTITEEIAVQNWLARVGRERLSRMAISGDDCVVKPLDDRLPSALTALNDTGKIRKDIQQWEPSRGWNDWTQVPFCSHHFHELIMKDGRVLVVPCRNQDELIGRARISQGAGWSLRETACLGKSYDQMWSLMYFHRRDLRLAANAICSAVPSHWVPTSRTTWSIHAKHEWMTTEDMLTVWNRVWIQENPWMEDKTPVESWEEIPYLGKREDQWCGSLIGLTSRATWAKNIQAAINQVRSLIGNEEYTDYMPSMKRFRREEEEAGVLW
Sequence of Dual specificity protein phosphatase 3 (P51452 whole entry): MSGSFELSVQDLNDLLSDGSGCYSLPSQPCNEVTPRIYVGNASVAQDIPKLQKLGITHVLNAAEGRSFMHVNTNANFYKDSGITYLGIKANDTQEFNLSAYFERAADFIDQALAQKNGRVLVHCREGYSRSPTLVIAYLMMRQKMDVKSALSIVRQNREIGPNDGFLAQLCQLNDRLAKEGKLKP

Nc1c(C(=O)c2ccccc2)sc2nsc(SCCN3CCCC3)c12
EC50 (BJ [1]): 12.8 µM (active)
EC50 [2]: 0.636 µM (active)
EC50 [3]: 5.96 µM (active)
EC50 [4]: 14.9 µM (active)
EC50 [5]: 15.1 µM (active)
EC50 (BJ [6]): 12.5 µM (active)
EC50 (BJ [7]): 7.28 µM (active)

Cc1cc(Cl)ccc1OCC(=O)OC(C)C(=O)N(C)C (configuration not stated)
IC50 [8]: 15.3 µM (active)
IC50 (Estrogen receptor beta [9]): < 0.023 µM (not active)
IC50 (Estrogen receptor beta [10]): 16.7 µM (active)
IC50 (Estrogen receptor): 37 µM (not active)
IC50 (Bcl-2-like protein 10): > 100 µM (inactive)

O=C(Nc1ccc(F)c(Cl)c1)Nn1cnnc1
IC50 (Procathepsin L): > 59.6 µM (not active)
IC50 (Aspartyl aminopeptidase): 1.46 µM (active)

CN(CC1CCCN(CCc2cccc(C(F)(F)F)c2)C1)C(=O)c1ccco1 (configuration not stated)
EC50 [2]: < 0.1 µM (active)
EC50 [4]: > 60 µM (not active)
EC50 (cells): 0.587 µM (active)

COc1ccc(-c2nnc(SC/C(O)=C(/C#N)C(C)=N)o2)cc1
IC50 (Estrogen receptor beta [9]): 0.35 µM (not active)
IC50 (Estrogen receptor beta [10]): 11.2 µM (active)
IC50 (Estrogen receptor): 30 µM (not active)

CCCOc1ccc(C(=S)NCc2ccc(F)cc2)cc1
IC50 [11]: 15.1 µM (active)
IC50 [12]: 19.5 µM (active)

COc1cc(OC)cc(-c2nc3cc(C)ccc3o2)c1
AC50 [13]: 26 µM (active)
IC50 [14]: > 100 µM (inactive)
IC50 [15]: > 100 µM (not active)

O=C(c1cc([N+](=O)[O-])cc([N+](=O)[O-])c1)N1CCCc2ccccc21
EC50 [2]: < 0.1 µM (active)
EC50 [4]: > 60 µM (not active)
EC50 (cells): 0.203 µM (active)

Cc1ccc(C)n1-c1ccc(C(=O)NCC2CCCO2)cc1 (configuration not stated)
EC50 [16]: > 50 µM (not active)

CCOC(=O)c1ccc(NC(=O)CSc2nnc(COc3ccccc3OC)n2C)cc1
IC50 [17]: > 100 µM (active)

Cc1[nH]c2ccccc2c1/C=N/Nc1nc(Nc2ccc(F)cc2)nc(N2CCOCC2)n1
IC50 [18]: 1.09 µM (active)
IC50 [19]: 51.2 µM (inactive)

COC1=CC(=O)C(C2CC(=O)c3c(O)cc(O)cc3O2)=CC1=O (configuration not stated)
IC50 (Hexokinase HKDC1): 11.5 µM (active)
IC50 (Genome polyprotein): 9.23 µM (active)

O=C(O)c1cccc(N2C(=O)C3CC=C(Cl)CC3C2=O)c1 (configuration not stated)
IC50 [8]: 10.3 µM (active)
IC50 [14]: > 100 µM (inactive)
IC50 [15]: > 100 µM (not active)

O=S(=O)(Nc1cc(Sc2cccc3cccnc23)c(O)c2ccccc12)c1ccccc1
EC50 (BJ [1]): 12.1 µM (inconclusive)
EC50 [5]: 16.1 µM (active)
CC50 (Vero): 6.77 µM (active)
EC50 (BJ [6]): > 75 µM (inconclusive)
EC50 (BJ [7]): 22.1 µM (inconclusive)

Cc1c(C)c2cc3c4c(oc3c(C)c2oc1=O)CCCC4
EC50 [16]: > 50 µM (not active)

N#Cc1sc2nc(C3CC3)cc(-c3ccc(Cl)cc3)c2c1N
AC50 [20]: 2.36 µM (active)

CCc1ccc(NC(=O)C2CCCN(S(=O)(=O)c3ccc4nc(O)ccc4c3)C2)cc1 (configuration not stated)
AC50 [20]: 27.5 µM (active)

OC(Cn1cnnc1)c1ccccc1 (configuration not stated)
IC50 (Procathepsin L): > 59.6 µM (not active)
IC50 (Aspartyl aminopeptidase): 0.603 µM (active)
